Measurements from ChEMBL document CHEMBL1156829 (Proc Natl Acad Sci U S A, 2008).

Key:
Plasmodium falciparum [1] = assay: NOVARTIS: Inhibition of Plasmodium falciparum 3D7 (drug-susceptible) proliferation in erythrocyte-based infection assay; type: functional, organism-based; details: Plasmodium falciparum, 3D7
Plasmodium falciparum [2] = assay: NOVARTIS: Inhibition of Plasmodium falciparum W2 (drug-resistant) proliferation in erythrocyte-based infection assay; type: functional, organism-based; details: Plasmodium falciparum, W2; read-out: EC50
[3] = NOVARTIS: Cytotoxicity against human hepatocellular carcinoma cell line (Huh7); type: toxicity, cell-based, Huh-7; details: Huh7 cells (hepatocellular carcinoma cell line)

SMILES	EC50 (Plasmodium falciparum [1]) [µM]	EC50 (Plasmodium falciparum [2]) [µM]	CC50 [3] [µM]
CCOC(=O)c1cnc2ccc(C(C)C)cc2c1O	1.15	1.14	> 100
CCN(CC)CCCNc1nc2cc(OC)c(OC)cc2c2nc(-c3ccccc3)nn12	3.25	1.17	> 100
COc1cccc(C(=O)NC(c2ccccc2OC)c2cc(Cl)c3cccnc3c2O)c1 (configuration not stated)	1.2	1.15	> 100
COc1cc(C(c2c(C)n(C)n(-c3ccccc3)c2=O)c2c(C)n(C)n(-c3ccccc3)c2=O)cc(Cl)c1OCc1ccccc1	2.69	0.456	38.3
CCOc1ccc(Nc2cc(C)nc3c(C)cc(C)cc23)cc1	0.484	0.225	19.2
CCCCCn1c(C)[n+](CCCC)c2cc(Cl)c(Cl)cc21	1.24	1.16	> 100
O=C(O)c1cccc(NC(=O)c2ccc(N3C(=O)c4ccc(C(=O)Nc5cccc(C(=O)O)c5)cc4C3=O)cc2)c1	> 12.5	1.14	> 100
COc1ccc(CN(Cc2cc3cccc(C)c3nc2N2CCCC(O)C2)C(=O)c2ccc(OC)c(OC)c2)cc1 (configuration not stated)	1.42	1.22	> 100
COc1ccc(CN(Cc2ccc(C(C)C)cc2)S(=O)(=O)c2ccc(S(=O)(=O)N3CCN(c4ccccc4F)CC3)cc2)cc1	> 12.5	1.21	> 100
CCC(=O)N1CCc2cc(Br)cc(S(=O)(=O)N3CC(C)CC(C)C3)c21 (configuration not stated)	1.97	1.16	> 100
CC1(C)N=C(N)N=C(N)N1c1ccccc1	0.174	0.988	> 83.7
Cc1cccc(OCC(=O)Nc2cccc(NC(=O)COc3cccc(C)c3)n2)c1	0.237	1.16	> 100
O=C(NC1CC1)c1ccc(N2CCC(Cc3ccccc3)CC2)c([N+](=O)[O-])c1	0.212	0.619	53.7
FC(F)(F)c1cnc(Sc2nnc(-c3ccncc3)o2)c(Cl)c1	1.87	0.976	83.9
Brc1ccc(C=NNc2nc3ccccc3[nH]2)cc1	0.226	0.674	55.8
CC(C)CN1C(=O)c2ccccc2C(C(=O)Nc2ccc(C(C)C)cc2)C1c1cccs1 (configuration not stated)	2.41	1.2	> 100
CC[n+]1c(/C=C/c2ccc(C)cc2)ccc2ccccc21	0.0974	0.119	> 10

SMILES	EC50 (Plasmodium falciparum [1]) [µM]	EC50 (Plasmodium falciparum [2]) [µM]	CC50 [3] [µM]
CC(=O)N(C1=C(N(C)C)C(=O)c2ccccc2C1=O)c1ccc(F)cc1	0.0244	0.032	2.68
COc1ccc(OC)c(CN2CCC3(CC2)CC3C(=O)NCCc2ccccc2OC)c1 (configuration not stated)	> 3.17	1.19	> 100
Cc1ccc(CNC(=O)C2CNCC2c2ccc(C(F)(F)F)cc2)cc1 (configuration not stated)	0.243	0.121	> 10
c1ccc(CN2CCC(NCc3c[nH]c4ccccc34)CC2)cc1	0.208	0.12	> 10
CC(C)C(=O)NC(Nc1cccc([N+](=O)[O-])c1)C(Cl)(Cl)Cl (configuration not stated)	1.56	1.2	> 100
O=C(CN1CCCC1)N1N=C(c2cccs2)CC1c1ccc(F)cc1 (configuration not stated)	> 12.5	1.2	> 100
C=CCn1cc(C=NNc2nc3ccccc3[nH]2)c2ccccc21	0.0913	0.22	18.4
Cn1cnnc1SCC(=O)Nc1ccccc1C(F)(F)F	> 12.5	1.19	> 100
COc1cc(C=C(C#N)c2nc3ccccc3[nH]2)ccc1OCc1ccccc1Cl	0.757	1.19	> 100
CCN1CCN(c2c(Cl)cccc2NC(=O)C(Cl)(Cl)Cl)CC1	1.67	1.19	> 100
CN1C=C(c2ccc3ccccc3n2)C(c2c[nH]c3ccccc23)c2ccccc21 (configuration not stated)	1.14	1.21	> 100
COc1cc2nc(NCCCOC(C)C)n3nc(-c4ccccc4)nc3c2cc1OC	0.793	1.21	> 100
CC1CCN(CCCNc2ccc(C(=O)Nc3ccc(C(F)(F)F)cc3)cc2[N+](=O)[O-])CC1	0.199	0.278	23.4
Cc1cc(N2CCCC2)nc2ccc(NC(=S)NCCCN3CCN(Cc4ccccc4)CC3)cc12	0.116	0.658	55.5
CC(C)C(=O)N(C)CCCNc1ccnc2cc(Cl)ccc12	0.131	0.118	> 10
O=C(Nc1cccc(N2CCC(NCC3CCCCC3)CC2)c1)C1CC1	3.68	1.18	> 100
Cc1ccc(-c2c[n+](CC(=O)c3ccccc3Cl)c3n2CCC3)cc1	1.01	1.11	> 95.9
